pEC50: −log10 of the molar value. “And” between values parts separate entries of the source, which are not always exact repeats. Equal entries are not always repeated. Where two headings read alike, the source gives them in different places. Numbered stars: 1 amine (or outer) side, 2 acyl side, 3 side chain; on linkers, the order of the positions; unused ones are H or OH. Square brackets hold non-standard residues; d marks the D form. Peptide text beside a SMILES is read from it. * marks the point of attachment. C18 diacid = O=C(O)CCCCCCCCCCCCCCCCC(=O)*; γGlu = O=C(O)[C@H](CCC(=O)[*:2])N[*:1]; NMeL = CN[C@@H](CC(C)C)C(=O)O; hSer = N[C@@H](CCO)C(=O)O; Nle = CCCC[C@H](N)C(=O)O; AEEA = NCCOCCOCC(=O)O
Assays:
hNK1R = molecular target: T1, hNK1R (Homo sapiens, UniProt P25103); test: IP3 assay (inositol trisphosphate, 3H-myoinositol) in transiently transfected COS-7 cells; type: cell-based; conditions: for pEC50: 0.2% ovalbumin buffer
T1 construct: host or cells: COS-7
Summary of the method: (§1)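 COS-7 cells were transiently transfected with receptor plasmid and labelled with ³H-myo-inositol. Cells were lysed in formic acid, and ³H-inositol phosphates were captured on SPA YSI beads and counted.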

hNK3R = molecular target: T2, hNK3R (Homo sapiens, UniProt P29371); test: as above; type: cell-based; conditions: for pEC50: 0.2% ovalbumin buffer, read-out: hNK3, IP3 EC50
T2 construct: host or cells: COS-7
T2 sequence (P29371 1-465): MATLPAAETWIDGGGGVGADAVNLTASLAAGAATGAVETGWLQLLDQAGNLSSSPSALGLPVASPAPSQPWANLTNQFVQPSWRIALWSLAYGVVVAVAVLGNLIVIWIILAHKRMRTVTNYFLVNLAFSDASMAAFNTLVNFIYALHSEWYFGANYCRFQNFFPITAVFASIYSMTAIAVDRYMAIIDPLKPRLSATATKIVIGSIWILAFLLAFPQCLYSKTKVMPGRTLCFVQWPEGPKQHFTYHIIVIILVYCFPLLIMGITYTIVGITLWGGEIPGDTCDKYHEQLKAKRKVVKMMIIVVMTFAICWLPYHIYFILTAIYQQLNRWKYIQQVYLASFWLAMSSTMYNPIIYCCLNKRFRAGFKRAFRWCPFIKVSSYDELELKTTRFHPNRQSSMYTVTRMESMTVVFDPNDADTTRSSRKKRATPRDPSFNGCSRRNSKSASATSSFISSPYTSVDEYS
Summary of the method: as §1

hNK2R = molecular target: T3, hNK2R (Homo sapiens, UniProt P21452); test: Hithunter cAMP assay (Gs-coupling) in transfected COS-7 cells; type: cell-based; conditions: COS-7 cells
T3 construct: host or cells: COS-7
T3 sequence (P21452 1-398): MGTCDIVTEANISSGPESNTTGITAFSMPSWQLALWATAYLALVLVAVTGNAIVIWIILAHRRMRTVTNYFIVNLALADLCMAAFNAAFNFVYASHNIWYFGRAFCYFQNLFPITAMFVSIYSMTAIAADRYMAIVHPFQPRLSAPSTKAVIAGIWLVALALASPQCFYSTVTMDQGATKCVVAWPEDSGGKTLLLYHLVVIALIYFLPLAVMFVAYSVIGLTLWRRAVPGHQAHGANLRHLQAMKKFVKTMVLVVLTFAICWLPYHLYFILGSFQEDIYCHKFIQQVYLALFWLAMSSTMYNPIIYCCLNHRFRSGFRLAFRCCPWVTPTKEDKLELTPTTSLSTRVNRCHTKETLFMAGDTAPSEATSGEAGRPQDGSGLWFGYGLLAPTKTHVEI
Procedure: As a secondary measure of agonist-induced G-protein coupled receptor (GPCR) activation cyclin adenosine monophosphate (cAMP) was measured by the Hithunter cAMP-assay from DiscoverX. Assays were carried out using COS-7 cells transiently transfected by calcium phosphate transfection with a vector pcDNA3.1(+) encoding one of the indicated receptors (Genscript). Briefly, DNA mixed with CaCl2 (2 M) and TE-buffer (10 mM Tris-HCl, 1 mM EDTA, pH 7.5) was dropwise added to 2×HBS (50 mM HEPES, 280 mM NaCl, 1.5 mM NaH2PO4, pH 7.2) and incubated for 45 min at room temperature (22±2° C.). The mixture and a final concentration of 100 μM Chloroquine were added to the cells and left to incubate for 5 hours at 37° C. under standard cell culture conditions (10% CO2) before changing medium to fresh maintenance medium.
The cAMP-assay takes advantage of the tachykinin receptors' ability to induce production of the cAMP second messenger upon agonist (ligand) binding on receptor expressing cells. Production of cAMP stems from receptor coupling to Gs-protein although coupling to Gq-protein (IP3-production) is considered the primary signalling mechanism by tachykinin receptors.
The assay was performed the day after transfection. Briefly, maintenance medium was aspirated, and plates were washed ×1 in HBSS before adding assay buffer (HBSS+1 mM IBMX), pre-incubated for 30 min at 37° C. followed by 15 min incubation with agonist (ligand) at 37° C. After incubation, plates were subjected to cell lysis and anti-cAMP-antibody incubation as described by manufacturer. Luminescence was measured with EnVision Multimode Plate Reader from Perkin Elmer.

in vivo = test: in vivo; set-up: species or system mice; conditions: mouse; for half-life: sc, 0.5 mg/kg
Procedure: Pharmacokinetics: To evaluate the in vivo half-life of individual peptide analogues we used wild type lean mice at around 10 weeks of age injected once with a peptide analogue. For each sample time point 3-4 mice were used and blood was drawn from the submandibular vein at indicated time points following injection. Prior to injection mice were given ad libitum access to standard chow diet. Mice were subcutaneously injected with 0.5 mg/kg peptide analogue in a volume of 2 ml/kg. The amount of peptide analogue and metabolite(s) present in blood samples were measured by TF-LC-MS and MetID-LC-MS, respectively. Sample preparation: One volume of plasma is precipitated with three volumes of ethanol (with internal standard). The mixture is centrifuged at 13000 g for 20 min. One volume of supernatant is diluted with two volumes of Milli-Q water (1% formic acid). Calibration curve: peptide analogue was spiked into blank mouse plasma. Range: 0.5 to 2000 nM (linear 1/x2).

[1] = COS-7 cells, figure legends: percent of 10^-6 M NKA

T1 sequence (P25103 whole entry): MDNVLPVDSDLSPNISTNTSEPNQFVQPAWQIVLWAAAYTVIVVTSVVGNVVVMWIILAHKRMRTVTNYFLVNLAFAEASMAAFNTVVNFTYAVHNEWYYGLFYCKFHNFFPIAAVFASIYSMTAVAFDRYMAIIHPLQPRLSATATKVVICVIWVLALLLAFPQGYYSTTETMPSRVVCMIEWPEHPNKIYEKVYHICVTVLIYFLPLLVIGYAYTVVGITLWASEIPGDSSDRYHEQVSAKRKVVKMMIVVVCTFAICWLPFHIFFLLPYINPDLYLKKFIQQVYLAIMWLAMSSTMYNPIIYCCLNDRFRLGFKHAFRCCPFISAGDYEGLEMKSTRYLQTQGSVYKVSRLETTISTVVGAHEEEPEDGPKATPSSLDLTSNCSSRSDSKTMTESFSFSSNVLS

CCCC[C@H](NC(=O)[C@H](CC(C)C)N(C)C(=O)CNC(=O)[C@@H](NC(=O)[C@H](Cc1ccccc1)NC(=O)[C@H](CCCCN)NC(=O)[C@H](CC(=O)O)NC(=O)COCCOCCNC(=O)COCCOCCNC(=O)CC[C@H](NC(=O)CCCCCCCCCCCCCCCCC(=O)O)C(=O)O)C(C)C)C(N)=O [compound 304, *Asp;Lys;Phe;Val;Gly;NmLeu;Nle;NH2]
pEC50 (hNK1R; COS-7 cells): 7.47 and 7.40 and 6.60 to 7.92 | hNK1R, IP3 Efficacy (hNK1R; [1]): 80% and 80-85% | hNK3, IP3 Efficacy (hNK3R): 100% | pEC50 (hNK3R; COS-7 cells): 7.18 and 7.19 and 5.15 to 7.22 | hNK3, IP3 Efficacy (hNK3R; [1]): 65% and 60% and 85-100% | pEC50 (hNK2R): 8.64 | hNK2R, cAMP Efficacy (hNK2R): 100% | half-life (in vivo; Half-life): ≥ 10 h

CCCC[C@H](NC(=O)[C@H](CC(C)C)N(C)C(=O)CNC(=O)[C@@H](NC(=O)[C@H](Cc1ccc(O)cc1)NC(=O)[C@H](CCCCN)NC(=O)[C@H](CC(=O)O)NC(=O)COCCOCCNC(=O)COCCOCCNC(=O)CC[C@H](NC(=O)CCCCCCCCCCCCCCCCC(=O)O)C(=O)O)C(C)C)C(N)=O [compound 305, *Asp;Lys;Tyr;Val;Gly;NmLeu;Nle;NH2] ({C18 diacid-γGlu-AEEA-AEEA}-DKYVG[NMeL][Nle]-NH2)
hNK1R, IP3 Efficacy (hNK1R): 17-50% | pEC50 (hNK1R; COS-7 cells): 6.28 and 5.46 to 6.35 | hNK1R, IP3 Efficacy (hNK1R; [1]): 30% and ~30% | pEC50 (hNK3R; COS-7 cells): ~6.14 | pEC50 (hNK2R): 9.15 and ~9.10 | hNK2R, cAMP Efficacy (hNK2R): 50% and 70% | Plasma exposure [2 h] (in vivo): 5.364 µM | Plasma exposure [26 h] (in vivo): 183 nM | AUC (in vivo; 330 nmol/kg): 28.8 µM·h | Cmax (in vivo; 330 nmol/kg): 3.45 µM | half-life (in vivo; Half-life): 5.5 h

COCC[C@H](NC(=O)[C@H](CC(C)C)N(C)C(=O)CNC(=O)[C@@H](NC(=O)[C@H](Cc1ccccc1)NC(=O)[C@H](CCCCN)NC(=O)[C@H](CC(=O)O)NC(=O)COCCOCCNC(=O)COCCOCCNC(=O)CC[C@H](NC(=O)CCCCCCCCCCCCCCCCC(=O)O)C(=O)O)[C@@H](C)O)C(N)=O [compound 383, *Asp;Lys;Phe;Thr;Gly;NmLeu;Metox;NH2] ({C18 diacid-γGlu-AEEA-AEEA}-DKFTG[NMeL][hSer](Me)-NH2)
pEC50 (hNK1R; COS-7 cells): 6.54 | hNK1R, IP3 Efficacy (hNK1R; [1]): 50% | pEC50 (hNK3R; COS-7 cells): 6.50 | hNK3, IP3 Efficacy (hNK3R; [1]): 60% | pEC50 (hNK2R): ~7.96 | hNK2R, cAMP Efficacy (hNK2R): 89% | half-life (in vivo; Half-life): ≥ 10 h

COCC[C@H](NC(=O)[C@H](CC(C)C)N(C)C(=O)CNC(=O)[C@@H](NC(=O)[C@H](Cc1ccc(O)cc1)NC(=O)[C@H](CCCCN)NC(=O)[C@H](CC(=O)O)NC(=O)COCCOCCNC(=O)COCCOCCNC(=O)CC[C@H](NC(=O)CCCCCCCCCCCCCCCCC(=O)O)C(=O)O)C(C)C)C(N)=O [compound 344, *Asp;Lys;Tyr;Val;Gly;NmLeu;Metox;NH2] ({C18 diacid-γGlu-AEEA-AEEA}-DKYVG[NMeL][hSer](Me)-NH2)
pEC50 (hNK1R; COS-7 cells): ~6.80 | hNK1R, IP3 Efficacy (hNK1R; [1]): 30% and 50% and ~30% | pEC50 (hNK2R): 7.55 | hNK2R, cAMP Efficacy (hNK2R): 96% and 100% | half-life (in vivo): 10.3 h | half-life (in vivo; Half-life): ≥ 10 h

From US20230406883A1, “COMPOUNDS AND THEIR USE IN TREATMENT OF TACHYKININ RECEPTOR MEDIATED DISORDERS” (Embark Biotech ApS, priority 2020, published 2023)
